Peptide text beside a SMILES is read from it.
Legend:
[1] = molecular target: T1, NHR peptide N36 (HIV-1 gp41) (Human immunodeficiency virus type 1 group M subtype B, UniProt P04578); test: CD thermal denaturation of 6-HB formed by CHR peptide and N36; assay type: binding; details: CHR peptide + N36, each 10 μM in PBS pH 7.2; CD at 222 nm, 20-98°C
T1 construct: made in house; host or cells: chemical synthesis (solid-phase FMOC), no expression host
Method: (§1) CD spectroscopy was performed according to our protocols described previously. […] The final concentration of each peptide was 10 μM in PBS buffer (pH 7.2). The CD spectra were acquired on a Jasco spectropolarimeter (model J-815) using a 1 nm bandwidth with a 1 nm step resolution from 195 to 260 nm at room temperature. The spectra were corrected by subtraction of a blank corresponding to the solvent. Data were averaged over three accumulations. The α-helical content was calculated from the CD signal by dividing the mean residue ellipticity [θ] at 222 nm by the value expected for 100% helix formation (-33,000 degrees.cm^2.dmol^-1). The thermal denaturation experiment was performed by monitoring the change in ellipticity [θ] at 222 nm at the increasing temperature (20–98°C) using temperature controller. The temperature was increased at a rate of 1.2°C per min; data were acquired at a 1 nm bandwidth at 222 nm at a frequency of 0.25 Hz. The melting curve was smoothened, and the midpoint of the thermal unfolding transition (Tm) values were taken as the maximum of the derivative d [θ]222/dT. The Tm value was detected at a peptide concentration of 10 μM in PBS buffer.

[2] = test system: N36 mutant V38A; test: CD thermal denaturation of 6-HB formed with N36 mutant V38A; assay type: binding, HIV-1; details: CHR peptide + N36 V38A mutant, each 10 μM in PBS
Method: as §1

[3] = molecular target: T2, N36 mutant I37T/N43K (Human immunodeficiency virus type 1 group M subtype B, UniProt P04578, I548T/N554K); test: CD thermal denaturation of 6-HB formed with N36 mutant I37T/N43K; assay type: binding, HIV-1; details: CHR peptide + N36 I37T/N43K mutant, each 10 μM in PBS
T2 construct: A panel of N36-based peptides carrying a single (I37T, V38A, Q40H, N43K) or double (I37T/N43K and V38A/N42T) NHR mutations; made in house; host or cells: chemical synthesis (solid-phase FMOC), no expression host
Method: as §1

[4] = molecular target: T1, NHR peptide N36 (HIV-1 gp41); test: Isothermal titration calorimetry (ITC) with N36; assay type: binding; details: 1 mM N36 injected into 100 μM peptide, 25°C, read-out: binding constant (K) (converted)
Method: ITC assay was performed using an ITC200 Microcalorimeter instrument (MicroCal, USA) as described previously. In brief, 1 mM N36 dissolved in ddH20 was injected into the chamber containing 100 μM SC29EK or MT-SC29EK. The experiments were carried out at 25°C. The time between injections was 240 s and the stirring speed was 500 rpm. The heats of dilution were determined in control experiments by injecting N36 into ddH20 and subtracted from the heats produced in the corresponding peptide-peptide binding experiments. Data acquisition and analysis were performed using MicroCal Origin software (version 7.0).

[5] = molecular target: T3, six-helical bundle (6-HB) of N36 and biotinylated-C34 (Human immunodeficiency virus type 1 group M subtype B, UniProt P04578); test: Inhibition of 6-HB formation, NC-1 capture ELISA; assay type: biochemical, HIV-1; details: biotinylated-C34 0.1 μM, N36 0.1 μM, 30 min room temperature, 3 independent experiments
T3 construct: made in house; host or cells: chemical synthesis (solid-phase FMOC), no expression host
Method: The 6-HB core-specific monoclonal antibody NC-1 was obtained from Dr. Shibo Jiang in the New York Blood Center (New York, NY) through the ARRRP, Division of AIDS, NIAID, National Institute of Health. The inhibitory activity of SC29EK or MT-SC29EK on the 6-HB formation was measured by a modified ELISA as previously described. Briefly, a 96-well polystyrene plate was coated with 2 μg/ml NC-1 in 0.1 M Tris buffer (pH 8.8). A tested peptide at graded concentrations was mixed with the biotinylated-C34 (0.1 μM) and incubated with N36 (0.1 μM) at room temperature for 30 min. The mixture was then added to the NC-1-coated plate, followed by incubation for 30 min and washing with a washing buffer (PBS containing 0.1% Tween 20) three times. Then horseradish peroxidase (HRP)-labeled streptavidin (Invitrogen) and the substrate 3,3,5,5- tetramethylbenzidine (Sigma) were sequentially added. Absorbance at 450 nm (A450) was measured using an ELISA reader.

[6] = test system: HIV-1NL4-3 pseudovirus; assay type: cell-based; details: 100 TCID50, TZM-bl cells, 48 h, luciferase, mean ± SD of three independent experiments, SD, read-out: IC50 Entry
Method: (§2) The inhibition of peptides on the HIV-1 entry was determined by single-cycle infection assay as described previously. Briefly, HIV-1 pseudovirus was generated by cotransfecting 293 T cells with an Env-expressing plasmid and a backbone plasmid pSG3^Δenv that encodes Env-defective, luciferase-expressing HIV-1 genome. The supernatants were harvested and filtered 48 h after transfection and 50% tissue culture infectious dose (TCID50) was determined in TZM-bl cells. The peptides were prepared with 3-fold dilutions and mixed with 100 TCID50 viruses and then incubated 1 h at room temperature. The mixture was added to TZM-bl cells (10^4/well) and incubated 48 h at 37°C. The luciferase activity was measured using luciferase assay reagents and a Luminescence Counter (Promega).

[7] = test system: wild-type HIV-1NL4-3; assay type: cell-based; details: wild-type HIV-1NL4-3, 100 TCID50, TZM-bl cells, two days, luciferase; mean ± SD of three independent experiments; SD; read-out: IC50 Replication
Method: The inhibition of peptides on HIV-1 replication was determined by a molecular cloned wild-type HIV-1NL4–3. In brief, the virus stock was harvested and quantified 48 h post-transfection. 100 TCID50 viruses were used to infect TZM-bl cells in the presence or absence of serially diluted peptides. Two days post-infection, the cells were harvested and lysed in reporter lysis buffer and the luciferase activity was measured as described above.

[8] = test system: HIV-1 NL4-3 WT; test: Inhibition of T20-resistant HIV-1 variants panel: WT; assay type: cell-based
Method: as §2

[9] = test system: HIV-1 NL4-3 I37T; test: Inhibition of T20-resistant HIV-1 variants: I37T; assay type: cell-based
Method: as §2

[10] = test system: HIV-1 NL4-3 V38A; test: Inhibition of T20-resistant HIV-1 variants: V38A; assay type: cell-based
Method: as §2

[11] = test system: HIV-1 NL4-3 V38M; test: Inhibition of T20-resistant HIV-1 variants: V38M; assay type: cell-based
Method: as §2

[12] = test system: HIV-1 NL4-3 Q40H; test: Inhibition of T20-resistant HIV-1 variants: Q40H; assay type: cell-based
Method: as §2

[13] = test system: HIV-1 NL4-3 N43K; test: Inhibition of T20-resistant HIV-1 variants: N43K; assay type: cell-based
Method: as §2

[14] = test system: HIV-1 NL4-3 D36S/V38M; test: Inhibition of T20-resistant HIV-1 variants: D36S/V38M; assay type: cell-based
Method: as §2

[15] = test system: HIV-1 NL4-3 I37T/N43K; test: Inhibition of T20-resistant HIV-1 variants: I37T/N43K; assay type: cell-based
Method: as §2

[16] = test system: HIV-1 NL4-3 V38A/N42T; test: Inhibition of T20-resistant HIV-1 variants: V38A/N42T; assay type: cell-based
Method: as §2

[17] = test system: molecular clone of HIV-1NL4-3; test: In vitro selection of HIV-1 resistance in MT-4 cells; assay type: cell-based; details: 1.5-2 fold escalating concentrations, after 35 generations of passage over 7 months
Method: The in vitro selection of HIV-1 resistance to peptide inhibitors was performed as described previously. Briefly, MT-4 cells were seeded at 1 × 10^4 in RPMI 1640 medium containing 10% fetal bovine serum on 12-well plates. The molecular clone of HIV-1NL4–3 was used to infect the cells in the presence or absence of diluted peptide inhibitors (SC29EK, MT-SC29EK, SC22EK and MT-SC22EK). The cells were incubated at 37°C with 5% CO2 until an extensive cytopathic effect was observed. The culture supernatants were harvested and used for next passage on fresh MT-4 cells with 1.5-2 fold increasing concentrations of peptide. Cells and supernatant were harvested at regular time points and stored at -80°C.

[18] = mean ± SD of three independent experiments, SD
[19] = mean ± SD of three independent experiments

## CC[C@H](C)[C@H](NC(=O)[C@H](CC(C)C)NC(=O)[C@H](CCC(=O)O)NC(=O)[C@H](CCC(=O)O)NC(=O)[C@@H](NC(=O)[C@H](CCCCN)NC(=O)[C@H](CCCCN)NC(=O)[C@@H](NC(=O)[C@H](Cc1ccc(O)cc1)NC(=O)[C@H](CCC(=O)O)NC(=O)[C@H](CCC(=O)O)NC(=O)[C@@H](NC(=O)[C@H](CCCCN)NC(=O)[C@H](CCCCN)NC(=O)[C@H](CC(=O)O)NC(=O)[C@H](Cc1c[nH]c2ccccc12)NC(=O)[C@H](CCC(=O)O)NC(=O)[C@H](CCC(=O)O)NC(=O)[C@H](Cc1c[nH]c2ccccc12)NC(C)=O)[C@@H](C)CC)[C@@H](C)O)[C@@H](C)CC)C(=O)N[C@@H](CCCCN)C(=O)N[C@@H](CCCCN)C(=O)N[C@@H](CO)C(=O)N[C@@H](CCC(=O)O)C(=O)N[C@@H](CCC(=O)O)C(=O)N[C@@H](CCC(N)=O)C(=O)N[C@@H](CCC(N)=O)C(=O)N[C@@H](CCCCN)C(=O)N[C@@H](CCCCN)C(=O)N[C@@H](CC(N)=O)C(N)=O [SC29EK] (Ac-WEEWDKKIEEYTKKIEELIKKSEEQQKKN-NH2)
[1]
  Tm (midpoint of the thermal unfolding transition) of 6-HB: 69.1 °C
[2]
  Tm of 6-HB: 62.1 °C
[3]
  Tm of 6-HB: 61.1 °C
[4]
  Kd: 71.9 nM
[5]
  IC50: 14 µM
[6]
  IC50: 2.2 ± 0.3 nM
[7]
  IC50: 0.9 ± 0.2 nM
[8]
  n-fold relative to the IC50 of the wild-type (WT) virus: 1
[8]; [18]
  IC50: 1.8 ± 0.2 nM
[9]
  n-fold relative to the IC50 of the wild-type (WT) virus: 8.3
[9]; [18]
  IC50: 15 ± 0.3 nM
[10]
  n-fold relative to the IC50 of the wild-type (WT) virus: 9
[10]; [18]
  IC50: 16.2 ± 1.9 nM
[11]
  n-fold relative to the IC50 of the wild-type (WT) virus: 8.4
[11]; [18]
  IC50: 15.1 ± 1.8 nM
[12]
  n-fold relative to the IC50 of the wild-type (WT) virus: 46.6
[12]; [18]
  IC50: 83.8 ± 10.8 nM
[13]
  n-fold relative to the IC50 of the wild-type (WT) virus: >138.9
[13]; [19]
  IC50: > 250 nM
[14]
  n-fold relative to the IC50 of the wild-type (WT) virus: 6.5
[14]; [18]
  IC50: 11.7 ± 0.7 nM
[15]
  n-fold relative to the IC50 of the wild-type (WT) virus: >138.9
[15]; [19]
  IC50: > 250 nM
[16]
  n-fold relative to the IC50 of the wild-type (WT) virus: 20.9
[16]; [18]
  IC50: 37.7 ± 6.4 nM
[17]
  peptide concentration reached during in vitro selection of resistant virus: 2,650 nM
